Reference: ChEMBL document CHEMBL1201862, “PubChem BioAssay data set” (2004)
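Briefly, cells in 96-well plates were exposed to five compound concentrations for 48 h, and endpoints were estimated by linear interpolation. Abbreviation: GI50, concentration required for 50% inhibition of growth.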 Active and inactive are the calls of the source. Rule as the data show it: active = GI50 up to about 1.1 µM and inactive = higher.

What was measured:
Assay in all cases: NCI-60 cell line screen, 48 h
[1] = test system: PC-3
[2] = test system: HL-60
[3] = test system: T47D
[4] = test system: Malme-3M
[5] = test system: SF-268
[6] = test system: SN12C
[7] = test system: SNB-75
[8] = test system: NCI-H460
[9] = test system: COLO 205
[10] = test system: TK-10
[11] = test system: MDA-MB-435
[12] = test system: CCRF-CEM
[13] = test system: HCC 2998
[14] = test system: SNB-19
[15] = test system: DU-145
[16] = test system: UACC-257
[17] = test system: MDA-MB-231
[18] = test system: KM12
[19] = test system: SK-MEL-2
[20] = test system: NCI-H23
[21] = test system: A549
[22] = test system: NCI/ADR-RES
[23] = test system: OVCAR-5
[24] = test system: SF-539
[25] = test system: UO-31
[26] = test system: OVCAR-3
[27] = test system: IGROV-1
[28] = test system: NCI-H522
[29] = test system: K562
[30] = test system: LOX IMVI
[31] = test system: M14
[32] = test system: HCT-15
[33] = test system: MOLT-4
[34] = test system: 786-0
[35] = test system: HOP-62
[36] = test system: HOP-92
[37] = test system: RXF 393
[38] = test system: SW-620
[39] = test system: EKVX
[40] = test system: RPMI-8226
[41] = test system: MCF7
[42] = test system: SK-MEL-28
[43] = test system: OVCAR-4
[44] = test system: NCI-H226
[45] = test system: SK-OV-3
[46] = test system: U-251
[47] = test system: CAKI-1
[48] = test system: OVCAR-8
[49] = test system: ACHN
[50] = test system: HT-29
[51] = test system: UACC-62
[52] = test system: HCT-116
[53] = test system: SK-MEL-5
[54] = test system: Hs-578T
[55] = test system: SF-295
[56] = test system: A498
[57] = test system: SR
[58] = test system: BT-549

With `Nc1ncc(Cc2nc3ccccc3s2)s1` the GI50 [1] was 63.5 µM (inactive), the GI50 [2] was > 100 µM (inactive) and the GI50 [3] was 48.6 µM (inactive). The GI50 [4] was 68.9 µM (inactive), the GI50 [5] was > 100 µM (inactive) and the GI50 [6] was > 100 µM (inactive). The GI50 [7] was > 100 µM (inactive), the GI50 [8] was 73.6 µM (inactive) and the GI50 [9] was 34.4 µM (inactive). For the same molecule, the GI50 [10] was 85.5 µM (inactive), the GI50 [11] was 39.2 µM (inactive) and the GI50 [12] was 30.3 µM (inactive). The GI50 [13] was > 100 µM (inactive), the GI50 [14] was > 100 µM (inactive) and the GI50 [15] was > 100 µM (inactive). For the same molecule, the GI50 [16] was 76.7 µM (inactive), the GI50 [17] was 69.8 µM (inactive) and the GI50 [18] was 56.4 µM (inactive). The GI50 [19] was > 100 µM (inactive), the GI50 [20] was > 10 µM (inactive) and the GI50 [21] was 69.8 µM (inactive). The GI50 [22] was 91.6 µM (inactive), the GI50 [23] was > 100 µM (inactive) and the GI50 [24] was > 100 µM (inactive). The GI50 [25] was 68.9 µM (inactive), the GI50 [26] was 47.3 µM (inactive) and the GI50 [27] was 63.8 µM (inactive). For the same molecule, the GI50 [28] was 53.1 µM (inactive), the GI50 [29] was 56.4 µM (inactive) and the GI50 [30] was > 100 µM (inactive). The GI50 [31] was 42.3 µM (inactive), the GI50 [32] was over 100 µM and the GI50 [33] was > 100 µM (inactive). For the same molecule, the GI50 [34] was > 100 µM (inactive), the GI50 [35] was > 100 µM (inactive) and the GI50 [36] was 68.4 µM (inactive). The GI50 [37] was > 100 µM (inactive), the GI50 [38] was > 100 µM (inactive) and the GI50 [39] was 30 µM (inactive). The GI50 [40] was 18.5 µM (inactive), the GI50 [41] was 35.6 µM (inactive) and the GI50 [42] was > 100 µM (inactive). The GI50 [43] was > 100 µM (inactive), the GI50 [44] was 24.6 µM (inactive) and the GI50 [45] was > 100 µM (inactive). For the same molecule, the GI50 [46] was 90.4 µM (inactive), the GI50 [47] was 53.3 µM (inactive) and the GI50 [48] was 57.3 µM (inactive). For the same molecule, the GI50 [49] was 54.5 µM (inactive), the GI50 [50] was 29.3 µM (inactive) and the GI50 [51] was 54 µM (inactive). The GI50 [52] was 52.1 µM (inactive), the GI50 [53] was 28.6 µM (inactive) and the GI50 [54] was 15.1 µM (inactive). The GI50 [55] was 40.9 µM (inactive).

For `COc1ccc(OC)c2c1C=C[C@H](C1(C)SCCS1)C2C(C)=O` (some centres not stated), the GI50 [1] was 26.7 µM (inactive), the GI50 [2] was 18.2 µM (inactive) and the GI50 [3] was 24.2 µM (inactive). The GI50 [4] was 20.7 µM (inactive), the GI50 [5] was 29.6 µM (inactive) and the GI50 [6] was 35.3 µM (inactive). The GI50 [8] was 27.9 µM (inactive), the GI50 [9] was > 10 µM (inactive) and the GI50 [10] was 40.2 µM (inactive). For the same molecule, the GI50 [11] was 23.9 µM (inactive), the GI50 [12] was 27.7 µM (inactive) and the GI50 [13] was 50.1 µM (inactive). The GI50 [14] was 27.4 µM (inactive), the GI50 [15] was 28.9 µM (inactive) and the GI50 [16] was 35.6 µM (inactive). For the same molecule, the GI50 [17] was 32.2 µM (inactive), the GI50 [18] was 32.4 µM (inactive) and the GI50 [20] was 22.6 µM (inactive). The GI50 [21] was 34.1 µM (inactive), the GI50 [22] was 32.2 µM (inactive) and the GI50 [23] was 21.3 µM (inactive). The GI50 [24] was 23.1 µM (inactive), the GI50 [25] was 24.2 µM (inactive) and the GI50 [26] was 29.3 µM (inactive). The GI50 [27] was 42.4 µM (inactive), the GI50 [28] was 13.9 µM (inactive) and the GI50 [29] was 32.7 µM (inactive). The GI50 [30] was 9.84 µM (inactive), the GI50 [56] was 26 µM (inactive) and the GI50 [31] was 31.2 µM (inactive). The GI50 [32] was 33.1 µM, the GI50 [33] was 19.7 µM (inactive) and the GI50 [34] was 31.7 µM (inactive). For the same molecule, the GI50 [35] was 39.8 µM (inactive), the GI50 [36] was 32.8 µM (inactive) and the GI50 [37] was 29.4 µM (inactive). For the same molecule, the GI50 [38] was 33.1 µM (inactive), the GI50 [39] was 41.1 µM (inactive) and the GI50 [40] was 18.6 µM (inactive). The GI50 [41] was 35.4 µM (inactive), the GI50 [42] was 24.8 µM (inactive) and the GI50 [43] was 42.5 µM (inactive). For the same molecule, the GI50 [44] was 24 µM (inactive), the GI50 [57] was 19.6 µM (inactive) and the GI50 [45] was 20.4 µM (inactive). For the same molecule, the GI50 [46] was 26.1 µM (inactive), the GI50 [47] was 32.6 µM (inactive) and the GI50 [48] was 44.2 µM (inactive). For the same molecule, the GI50 [49] was 35.2 µM (inactive), the GI50 [50] was 18.7 µM (inactive) and the GI50 [51] was 20.8 µM (inactive). For the same molecule, the GI50 [52] was 23 µM (inactive), the GI50 [53] was 17.2 µM (inactive) and the GI50 [54] was 17.2 µM (inactive). The GI50 [55] was 23.9 µM (inactive).

In the case of `O=S(=O)(c1ccccc1)N1CN2CN(C1)CN(S(=O)(=O)c1ccccc1)C2`, the GI50 [1] is reported as > 100 µM (inactive), the GI50 [2] is reported as 26.6 µM (inactive) and the GI50 [6] is reported as > 100 µM (inactive). The GI50 [7] was 22.7 µM (inactive), the GI50 [8] was > 100 µM (inactive) and the GI50 [9] was > 100 µM (inactive). For the same molecule, the GI50 [10] was > 100 µM (inactive), the GI50 [11] was > 100 µM (inactive) and the GI50 [13] was > 100 µM (inactive). The GI50 [14] was > 100 µM (inactive), the GI50 [15] was > 100 µM (inactive) and the GI50 [16] was > 100 µM (inactive). The GI50 [17] was > 100 µM (inactive), the GI50 [18] was > 100 µM (inactive) and the GI50 [19] was > 100 µM (inactive). For the same molecule, the GI50 [20] was > 100 µM (inactive), the GI50 [21] was > 100 µM (inactive) and the GI50 [22] was > 100 µM (inactive). The GI50 [23] was > 100 µM (inactive), the GI50 [24] was > 100 µM (inactive) and the GI50 [25] was > 100 µM (inactive). The GI50 [26] was > 100 µM (inactive), the GI50 [27] was > 100 µM (inactive) and the GI50 [29] was > 100 µM (inactive). The GI50 [30] was > 100 µM (inactive), the GI50 [56] was > 100 µM (inactive) and the GI50 [31] was > 100 µM (inactive). The GI50 [32] was over 100 µM, the GI50 [34] was > 100 µM (inactive) and the GI50 [35] was > 100 µM (inactive). The GI50 [36] was > 100 µM (inactive), the GI50 [37] was 55.7 µM (inactive) and the GI50 [38] was > 100 µM (inactive). For the same molecule, the GI50 [39] was > 100 µM (inactive), the GI50 [40] was > 100 µM (inactive) and the GI50 [41] was > 100 µM (inactive). For the same molecule, the GI50 [42] was > 100 µM (inactive), the GI50 [43] was > 100 µM (inactive) and the GI50 [58] was > 100 µM (inactive). The GI50 [44] was > 100 µM (inactive), the GI50 [57] was > 100 µM (inactive) and the GI50 [45] was > 100 µM (inactive). The GI50 [46] was 97.3 µM (inactive), the GI50 [47] was > 100 µM (inactive) and the GI50 [48] was > 100 µM (inactive). The GI50 [49] was 79.8 µM (inactive), the GI50 [50] was > 100 µM (inactive) and the GI50 [51] was > 100 µM (inactive). For the same molecule, the GI50 [52] was > 100 µM (inactive), the GI50 [53] was > 100 µM (inactive) and the GI50 [55] was > 100 µM (inactive).

`CC(C)(C)c1ccc2c(c1)CNCCNCCNCc1cc(C(C)(C)C)ccc1OCC1(CO2)COc2ccc(C(C)(C)C)cc2CNCCNCCNCc2cc(C(C)(C)C)ccc2OC1` was tested, and the GI50 [1] was 0.382 µM (active), the GI50 [4] was 1.94 µM (inactive) and the GI50 [5] was 1.37 µM (inactive). For the same molecule, the GI50 [8] was 0.24 µM (active), the GI50 [10] was 1.55 µM (inactive) and the GI50 [13] was 0.339 µM (active). For the same molecule, the GI50 [15] was 1.49 µM (inactive), the GI50 [16] was 1.69 µM (inactive) and the GI50 [17] was 1.41 µM (inactive). The GI50 [18] was 0.243 µM (active), the GI50 [19] was 0.914 µM (active) and the GI50 [20] was 1.52 µM (inactive). For the same molecule, the GI50 [22] was 2.17 µM (inactive), the GI50 [23] was 1.72 µM (inactive) and the GI50 [24] was 0.375 µM (active). For the same molecule, the GI50 [25] was 1.72 µM (inactive), the GI50 [26] was 1.33 µM (inactive) and the GI50 [27] was 0.418 µM (active). The GI50 [28] was 0.186 µM (active), the GI50 [31] was 0.526 µM (active) and the GI50 [32] was 1.51 µM. The GI50 [35] was 1.87 µM (inactive), the GI50 [37] was 2.05 µM (inactive) and the GI50 [38] was 0.303 µM (active). For the same molecule, the GI50 [39] was 0.611 µM (active), the GI50 [41] was 0.183 µM (active) and the GI50 [42] was 10 µM (inactive). The GI50 [43] was 1.58 µM (inactive), the GI50 [58] was 1.5 µM (inactive) and the GI50 [44] was 0.718 µM (active). The GI50 [45] was 1.53 µM (inactive), the GI50 [47] was 1.72 µM (inactive) and the GI50 [48] was 1.76 µM (inactive). The GI50 [49] was 1.51 µM (inactive), the GI50 [51] was 1.68 µM (inactive) and the GI50 [54] was 1.44 µM (inactive).
